Key:
[1] = Drug-drug compatibility test under accelerated stability conditions; type: physicochemical
Procedure: Specifically, after storing a mixture of ARB and SGLT-2 inhibitor for 4 weeks under accelerated stability test conditions (40 ± 2°C/75 ± 5% relative humidity), changes in the contents of each ingredient and flexible substance and changes in properties (color, agglomeration, etc.) were analyzed. Olmesartan, Valsartan, and Telmisartan were used as ARBs, and Empagliflozin, Dapagliflozin (Dapagliflozin propanediol monohydrate), and Canagliflozin were used as SGLT-2 inhibitors. [Table 4] […] To observe the properties and viscosity of the main ingredients, 10 g of the mixtures of ARBs and SGLT-2 inhibitors stored for 1, 2, 3, and 4 weeks were taken and exposed to 100 ml of purified water at room temperature for 10 minutes, and then the properties and viscosity were identified.

[2] = tested on: angiotensin converting enzyme (ACE); assay: ACE mRNA expression (RT-PCR) in LPS inflammation-induced H9c2 cells; type: cell-based, rat; details: for mRNA expression of ACE: alone administration, FIGS. 5 and 6
Procedure: Specifically, H9c2 cells as a […] cardiac cell line were obtained and used from the Korea Cell Line Bank (KCLB 40071, Korea) and incubated and prepared in a DMEM medium supplemented with 10% FBS and 1% antibiotic-antimycotic (10 units/ml penicillin, 100 µg/ml streptomycin, 0.25 µg/ml amphotericin) under 37°C and 5% CO2 conditions.
To confirm the effect on ACE activity, the prepared H9c2 cells were treated with 2.5 µg/ml of Lipopolysaccharide (LPS), which was 2.5 times more than the amount used in conventional inflammation-related experiments, to induce inflammation, thereby setting the optimized conditions for confirming ACE expression. LPS inflammation-induced H9c2 cells were treated with 10, 25, and 50 µM Telmisartan or olmesartan, respectively, and the H9c2 cells were harvested for ELISA assay. The harvested cells were treated with 1 ml of an RIPA buffer and stirred at 4°C for 30 minutes to extract proteins. Thereafter, the proteins were centrifuged at 4°C and 10,000 rpm for 20 minutes, and the supernatant was transferred to a sterilized tube and stored at - 80°C for use in the ELISA assay.
Specifically, LPS inflammation-induced H9c2 cells in Experimental Example 1-2 were treated with 10 or 25 µM Telmisartan and 10 or 50 µM olmesartan, and then treated with 200 µl of chloroform together with 1 ml of TRIZol (Sigma, USA), gently mixed, and separated for 10 minutes, and then centrifuged at 4°C and 10,000 rpm for 10 minutes. After centrifugation, only the supernatant from the tube was taken and transferred to a new sterile tube, and the supernatant was treated with 500 µl of isopropanol to precipitate RNA. The precipitated RNA was centrifuged at 4°C, 10,000 rpm for 10 minutes, and then the supernatant except for the pellets in the tube was fully removed, and the RNA pellets were treated with 500 µl of 75% ethyl alcohol and thoroughly washed. The washed pellets were centrifuged at 4°C, 10,000 rpm for 5 minutes, and then the supernatant except the pellets was fully removed. The tube containing the pellets from which the supernatant had been cleanly removed was treated with diethyl pyrocarbonate (DEPC)-water and stored at - 80°C for use in an RT-PCR experiment.
RT-PCR was performed by synthesizing cDNA from mRNA using an RT-PCR kit containing DNA polymerase, buffer, dNTP, and tracking dye, and then using ACE primers in Table 1 under the conditions in Table 2 for 35 cycles. The PCR products were electrophoresed on a […] agarose gel, identified using a UV transilluminator, and expressed as normalized to GAPDH for quantitative comparison.
In order to confirm the effect of each combination or single substance on the mRNA expression of ACE, the experimental samples in Table 3 were treated to H9c2 cells induced with LPS inflammation in Experimental Example 1-2, respectively, and then the mRNA expression of ACE was evaluated in the same manner as in Experimental Example 1-3.

[3] = 4-week repeated oral administration toxicity; type: in vivo, Sprague-Dawley rats; details: oral daily for 4 weeks
Procedure: During the test, general symptom observation, blood test, and body weight measurement were performed, and after the observation period ended, the rats were euthanized and autopsied.

[4] = Single oral administration pharmacokinetic test; details: beagle dogs
Procedure: The control and test drugs were administered orally once by a single tablet, and were crossed over (4 × 4 cross over) four times at one-week intervals. Fasting was performed from 5 to 6 pm the day before administration. The control and test drugs were administered into the tongue root, and then administered with approximately 15 ml of water, and feed was provided approximately 4 hours after administration. Blood was collected at 0 (blank), 0.25, 0.5, 0.75, 1, 1.5, 2, 3, 4, 5, 6, 8, 12, and 24 hours (14 times) after administration of the control and test drugs, and left by a 7-day drug-free period.

A549 cells = assay: Cell survival rate (MTT) in A549 cells; type: cell-based; details: up to a concentration of 25 µM, 24 and 48 hours, FIGS. 1A, 1B
Procedure: (§1) To screen angiotensin II receptor blockers for use in combinations of angiotensin II receptor blockers (ARBs) and sodium-glucose cotransporter-2 (SGLT-2) inhibitors for the treatment of heart failure, cell survival rates were evaluated.
(§2) Specifically, A549 cells were obtained from the Korean Cell Line Bank (KCLB) and subcultured using a RPMI-1640 medium supplemented with 10% fetal bovine serum (FBS) and 1% Penicillin, and MDCK cells were obtained from ATCC and subcultured using a DMEM medium supplemented with 10% FBS. 200 µl each of the A549 cells and MDCK cells incubated in an incubator under 37°C and 5% CO2 conditions were dispensed at 2 × 10^4 cells/well in a 96-well plate, and then a control group was treated with 100 µl of the medium, and experimental groups were treated with 1.25, 25, 50, and 100 µM of Telmisartan or olmesartan, respectively. After 24 and 48 hours, all of the wells were treated with 50 µl each of a 2 mg/ml MTT reagent and incubated in an incubator for 3 hours, and then each well was added with […] of DMSO, wrapped in foil, stirred for 30 minutes at room temperature, and the absorbance was measured at 570 nm to obtain the cell survival rate.

[5] = tested on: angiotensin converting enzyme (ACE); assay: ACE ELISA assay (ACE protein expression) in LPS inflammation-induced H9c2 cells; type: cell-based, rat; details: FIG. 3
MDCK cells = assay: Cell survival rate (MTT) in MDCK cells; type: cell-based; details: up to a concentration of 25 µM, 24 and 48 hours, FIGS. 2A, 2B
Procedure: as §1, §2

[6] = ARB ingredient (first value of cell), Acceleration 1 week, 40 ± 2°C/75 ± 5% relative humidity
[7] = ARB ingredient (first value of cell), Acceleration 2 week
[8] = ARB ingredient (first value of cell), Acceleration 3 week
[9] = ARB ingredient (first value of cell), Acceleration 4 week
[10] = ARB ingredient (first value of cell), Initial
[11] = color, agglomeration, etc., Initial
[12] = SGLT-2 inhibitor ingredient (second value of cell), Acceleration 1 week
[13] = SGLT-2 inhibitor ingredient (second value of cell), Acceleration 2 week
[14] = SGLT-2 inhibitor ingredient (second value of cell), Acceleration 3 week
[15] = SGLT-2 inhibitor ingredient (second value of cell), Acceleration 4 week
[16] = SGLT-2 inhibitor ingredient (second value of cell), Initial
[17] = 15 µM high-concentration groups
[18] = low-concentration groups of 2.5 µM to 10 µM

| Compound | flexible substance ([1]; Acceleration 1 week) | property ([1]; Acceleration 1 week) | flexible substance ([1]; Acceleration 2 week) | property ([1]; Acceleration 2 week) | flexible substance ([1]; Acceleration 3 week) | property ([1]; Acceleration 3 week) | flexible substance ([1]; Acceleration 4 week) | property ([1]; Acceleration 4 week) | flexible substance ([1]; Initial) | property [1, 11] | mRNA expression of ACE [2, 18] | also measured |
| --- | --- | --- | --- | --- | --- | --- | --- | --- | --- | --- | --- | --- |
| OC[C@H]1O[C@@H](c2ccc(Cl)c(Cc3ccc(O[C@H]4CCOC4)cc3)c2)[C@H](O)[C@@H](O)[C@@H]1O [Comparative Example 8, Empagliflozin] | – | – | – | – | – | – | – | – | – | – | – | mRNA expression of ACE [2, 17]: decrease below the normal level |
| CCCc1nc2c(C)cc(-c3nc4ccccc4n3C)cc2n1Cc1ccc(-c2ccccc2C(=O)O)cc1 [Comparative Example 14, Telmisartan] | – | – | – | – | – | – | – | – | – | – | – | mRNA expression of ACE [2, 17]: decrease below the normal level |
| CCOc1ccc(Cc2cc([C@@H]3O[C@H](CO)[C@@H](O)[C@H](O)[C@H]3O)ccc2Cl)cc1 [Dapagliflozin, (1S)-1,5-anhydro-1-C-{4-chloro-3-[(4-ethoxyphenyl)methyl]phenyl}-D-glucitol] | – | – | – | – | – | – | – | – | – | – | did not decrease to a normal level | GLU ([3]; blood test): decreased; difference in AUCall between groups in the single administration group and the combined administration group [4]: 1.0 times; Cmax of Dapagliflozin (T/R ratio) (in the presence of Telmisartan, 90% confidence interval 0.93 to 1.12): approximately 1.02 times; AUC of Dapagliflozin (T/R ratio) (in the presence of Telmisartan, 90% confidence interval 0.97 to 1.03): approximately 1.00 times |
| OC[C@H]1O[C@@H](c2ccc(Cl)c(Cc3ccc(O[C@H]4CCOC4)cc3)c2)[C@H](O)[C@@H](O)[C@@H]1O [Empagliflozin, (1S)-1,5-anhydro-1-C-[4-chloro-3-[[4-[[(3S)-tetrahydro-3-furanyl]oxy]phenyl]methyl]phenyl]-D-glucitol] | – | – | – | – | – | – | – | – | – | – | did not decrease to a normal level | – |
| CCCc1nc2c(C)cc(-c3nc4ccccc4n3C)cc2n1Cc1ccc(-c2ccccc2C(=O)O)cc1 [Telmisartan, 4'-[(1,4'-dimethyl-2'-propyl[2,6'-bi-1H-benzimidazol]-1'-yl)methyl][1,1'-biphenyl]-2-carboxylic acid] | – | – | – | – | – | – | – | – | – | – | did not decrease to a normal level | body weight measurement [3]: a tendency for inhibiting weight gain; difference in AUCall between groups in the single administration group and the combined administration group [4]: 1.0 times; Cmax of Telmisartan (T/R ratio) (in the presence of Dapagliflozin, 80 mg / 10 mg, 90% confidence interval 0.99 to 1.43): approximately 1.19 times; cell survival rate (A549 cells): no effect on cell survival rate; ACE expression inhibition effect ([5]; 25 µM treatment group): the best; ACE expression inhibition effect ([5]; all treatment concentrations (10, 25, 50 µM)): superior to that of olmesartan; cell survival rate (MDCK cells): no effect on cell survival rate; mRNA expression ([2]; 25 µM treatment group, FIG. 4): mostly inhibited; mRNA expression inhibition effect ([2]; all treatment concentrations, FIG. 4): superior to that of olmesartan |
| CCCc1nc(C(C)(C)O)c(C(=O)O)n1Cc1ccc(-c2ccccc2-c2nnn[nH]2)cc1 [olmesartan] | – | – | – | – | – | – | – | – | – | – | – | cell survival rate (A549 cells): no effect on cell survival rate; cell survival rate (MDCK cells): no effect on cell survival rate |

More lines, main results first:

| flexible substance ([1]; Acceleration 1 week) | property ([1]; Acceleration 1 week) | flexible substance ([1]; Acceleration 2 week) | property ([1]; Acceleration 2 week) | flexible substance ([1]; Acceleration 3 week) | property ([1]; Acceleration 3 week) | flexible substance ([1]; Acceleration 4 week) | property ([1]; Acceleration 4 week) | flexible substance ([1]; Initial) | property [1, 11] | Compound | mRNA expression of ACE [2, 18] | also measured |
| --- | --- | --- | --- | --- | --- | --- | --- | --- | --- | --- | --- | --- |
| 0.1 or less | suitable | 0.1 or less | suitable | 0.1 or less | suitable | 0.1 or less | suitable | 0.1 or less | suitable | CCCc1nc2c(C)cc(-c3nc4ccccc4n3C)cc2n1Cc1ccc(-c2ccccc2C(=O)O)cc1 [Com. Ex. 16, Telmisartan] | – | content [1, 6]: 100.1%; content [1, 7]: 100%; content [1, 8]: 100%; content [1, 9]: 100%; content [1, 10]: 100.1% |
| 1.0 or less | suitable | 1.0 or more | suitable | 5.0 or more | unsuitable | 5.0 or more | unsuitable | 0.1 or less | suitable | OC[C@H]1O[C@@H](c2ccc(Cl)c(Cc3ccc(O[C@H]4CCOC4)cc3)c2)[C@H](O)[C@@H](O)[C@@H]1O [Com. Ex. 17, Empagliflozin] | – | content [1, 12]: 97.3%; content [1, 13]: 95.1%; content [1, 14]: 85.4%; content [1, 15]: 80.2%; content [1, 16]: 99.9% |
| 0.1 or more | suitable | 0.1 or more | suitable | 0.1 or more | suitable | 0.1 or more | suitable | 0.1 or less | suitable | CCCCC(=O)N(Cc1ccc(-c2ccccc2-c2nnn[nH]2)cc1)[C@H](C(=O)O)C(C)C [Com. Ex. 20, Valsartan] | – | content [1, 6]: 99.4%; content [1, 7]: 99.2%; content [1, 8]: 99%; content [1, 9]: 98.7%; content [1, 10]: 99.7% |
| 1.0 or less | unsuitable | 5.0 or more | unsuitable | 5.0 or more | unsuitable | 5.0 or more | unsuitable | 0.1 or less | suitable | Cc1ccc([C@@H]2O[C@H](CO)[C@@H](O)[C@H](O)[C@H]2O)cc1Cc1ccc(-c2ccc(F)cc2)s1 [Com. Ex. 21, Canagliflozin] | – | content [1, 12]: 95.2%; content [1, 13]: 89.2%; content [1, 14]: 85.2%; content [1, 15]: 80.1%; content [1, 16]: 99.5% |
